According to patent publication US9505798B2, “Steroid compounds as RORyt modulators and uses thereof” (New York University, priority 2010, dated 2016):

How the values were obtained:
[1] = system: human embryonic kidney 293t cell lines; test: Toxicity on human embryonic kidney 293T cells; conditions: human
Method: The following representative compounds are tested for their RORγt inhibitory activity and toxicity.

[2] = target: T1, RORγt (Mus musculus, UniProt P51450); assay type: cell-based
T1 construct: expressed in transfected cells; host or cells: mouse naive CD4+ T cells, retroviral MIGr vector
T1 sequence (P51450 other isoform, or with tags, fused parts or gaps): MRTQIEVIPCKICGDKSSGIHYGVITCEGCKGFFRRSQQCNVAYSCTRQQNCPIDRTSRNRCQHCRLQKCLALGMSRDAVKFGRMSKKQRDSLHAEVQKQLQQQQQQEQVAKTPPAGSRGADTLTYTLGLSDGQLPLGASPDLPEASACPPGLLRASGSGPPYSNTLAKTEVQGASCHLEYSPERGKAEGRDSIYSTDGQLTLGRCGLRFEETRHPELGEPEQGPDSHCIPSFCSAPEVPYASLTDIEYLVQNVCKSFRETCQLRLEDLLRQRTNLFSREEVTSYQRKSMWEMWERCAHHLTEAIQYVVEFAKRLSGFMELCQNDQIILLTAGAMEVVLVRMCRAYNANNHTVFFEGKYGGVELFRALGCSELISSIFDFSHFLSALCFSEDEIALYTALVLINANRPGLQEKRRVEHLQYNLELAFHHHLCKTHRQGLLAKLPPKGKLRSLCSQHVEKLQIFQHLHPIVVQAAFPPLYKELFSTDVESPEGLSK
Method: Naive CD25^− CD62L^+CD44^low/int cells were sorted from RORγt^fl/fl mice and transduced with control-IRES-GFP (WT) or CRE-IRES-GFP (KO) retrovirus. […] FACS-sorted naive T cells were transduced with retroviral vectors encoding murine RORα-IRES-GFP or RORγt-IRES-GFP on Day 1 (16 h after TCR stimulation) and GFP expressing cells were gated for analysis on Day 5. […] Lymphocytes were isolated on day 21 after disease induction. The cells were stimulated for 4 h with PMA/Ionomycin and stained for surface markers and intracellular cytokines.
T cells were purified from lymph nodes and spleens of six to eight weeks old B6 mice (Taconic), by magnetically depleting B220^+ cells (autoMACS, Miltenyi), and then sorting CD8^−DAPI^−CD19^−CD4^+CD25^−CD62L^+CD44^low/Int naive T cells on a FACSAria (BD). […] For T cell polarization, 200 μl cells were seeded at 0.4×10^5 cells per mL in 96-well plates pre-coated with anti-CD3ε (5 μg/mL) and anti-CD28 (10 μg/mL). Cells were cultured for 4-5 days in Th17 (TGF-β (0.3 ng/mL), IL-6 (20 ng/mL), and anti-IFN-γ and anti-IL-4 (2 ng/mL)), Th1 (IL-12 (10 ng/mL), IL-2 (10 U/mL) and anti-IL-4 (2 ng/mL)), or Th2 (IL-4 (10 ng/mL), and anti-P35 and anti-IFN-γ 2 ng/mL)) conditions. For ectopic expression ROR proteins, native CD4^+ T cells were infected with retroviral MIGr-control, MIGr-RORα or MIGr-RORγ 24 hrs after activation, and cultured without exogenous cytokines or only with IL-6. At day 1, compounds dissolved in DMSO were added. For cytokine analysis, cells were incubated for 5 hours with phorbol 12-myristate 13-acetate (50 ng/mL; Sigma), ionomycin (500 ng/mL; Sigma) and GolgiStop (BD). Intracellular cytokine staining was performed according to the manufacturer's protocol (Cytofix/Cytoperm buffer set from BD) with alexa647-conjugated anti-IL-17a (eBioscience), and PE-conjugated anti-IFN-γ or anti-IL-4 (eBioscience). An LSR II (BD Biosciences) and FlowJo software (Tree Star) were used for flow cytometry and analysis. Dead cells were excluded using the Live/Dead fixable aqua dead cell stain kit (Invitrogen).

| Structure (SMILES) | cytotoxic concentration on human cells [1] | RORγt- versus RORα-mediated induction of IL-17a [2] |
| --- | --- | --- |
| CC1O[C@@H](OC2C(C)O[C@H](OC3C(C)O[C@@H](O[C@H]4CC[C@@]5(C)[C@H](CC[C@@H]6[C@@H]5C[C@@H](O)[C@]5(C)[C@@H](C(CO)CCO)CC[C@]65O)C4)C[C@H]3O)C[C@H]2O)C[C@@H](O)C1O (some centres unmarked) [Compound 13, 20,22-Dihydrodigoxin-21,23-diol] | > 40 µM |  |
| C[C@H]1O[C@@H](O[C@H]2[C@@H](O)C[C@H](O[C@H]3[C@@H](O)C[C@H](O[C@H]4CC[C@@]5(C)[C@H](CC[C@@H]6[C@@H]5C[C@@H](O)[C@]5(C)[C@@H](C7=CC(=O)OC7)CC[C@]65O)C4)O[C@@H]3C)O[C@@H]2C)C[C@H](O)[C@@H]1O [Digoxin] |  | suppressed RORγt—but not RORα-mediated induction of IL-17a |
